For one test, the target named is T1, BRD4 (BD1) (Homo sapiens, UniProt O60885).
T1 construct: His; made in house
Description: BRD4 AlphaLisa binding assay. As for the experimental part: A. IC50 Measurements for Inhibitors Using BRD4 AlphaLisa Binding Assay.
Specifically, in a 384 well ProxiPlate BRD4 (BD1) (30 nM final) was combined with peptide (200 nM final) in 40 mM HEPES (pH 7.0), 40 mM NaCl, 1 mM DTT, 0.01% (w/v) BSA, and 0.008% (w/v) Brij-35 either in the presence of DMSO (final 1.2% DMSO) or compound dilution series in DMSO. After 20 minute incubation at room temperature Alpha streptavidin donor beads and AlphaLisa anti-Flag acceptor beads were added to a final concentration of 10 ug/mL each. After three hours equilibration plates were read on an Envision instrument and IC50s calculated using a four parameter non-linear curve fit.
A general note: In Alpha technology, singlet oxygen from a donor bead excites a nearby acceptor bead.

For test [1], the system named is MYC mRNA in MV4:11 (AML) cells. Description: cMyc RNA quantification assay (QuantiGene) in MV4:11 cells. Particulars: Homo sapiens, 4 h, QuantiGene 2.0. It is filed as cell-based. As to the method:
B. cMyc RNA Quantification Assay (QuantiGene® Assay):
MV4:11 (AML) cells were seeded in a 96-well plate and incubated in the presence of various concentrations of compounds for 4 h. Relative mRNA levels were quantitated by using QuantiGene 2.0 assay (Affymetrix) according to the manufacturer's recommendation. Signals were detected by using an Envision plate reader (Perkin-Elmer). Biological duplicates were averaged and normalized to vehicle (DMSO) control to calculate percent MYC mRNA levels.

The test system of test [2] is IL-6 secretion in THP-1 cells. Description: Cell-based IL-6 quantification assay (ELISA, Mesoscale) in LPS-treated THP-1 cells. Conditions: Homo sapiens, LPS 4 μg/mL, 16 h, ELISA value/CellTiter-Glo ratio. As to the method: C. Cell-Based IL-6 Quantification Assay (ELISA, Mesoscale Assay):
100,000 THP-1 cells were seeded in RPMI1640-10% FBS in 96-well plates. LPS (E. Coli Invitrogen) in RPMI−10% FBS at a final concentration of 4 μg/mL was added to the wells and the cells are then incubated in the presence of various concentrations of compounds for 16 h. Plates are spun ([…], 5 min), an aliquot of 25 uL supernatant is transferred in to an ELISA plate (Mesoscale technology, MSD) and the detection of IL-6 is performed using manufacturer's instructions. The amount of cells in each well is assessed using CellTiter-Glo® (Promega). The ratio of ELISA value/CellTiter-Glo value is used to calculate the percent of inhibition of IL-6 secretion.
(In general: ELISA stands for enzyme-linked immunosorbent assay.)

[3] abbreviates: BRD4 (BD1) 30 nM, biotinylated H4-tetraacetyl peptide 200 nM, read-out: BRD4 AlphaLisa.

This note sets out measurements from patent US9422292B2, “Bromodomain inhibitors and uses thereof” (Constellation Pharmaceuticals, Inc., priority 2011, dated 2016).

Read-outs that look alike come from different tables or passages of the source.

On to `Cc1ncnn1-c1ccc2c(c1)N(c1ccc(Cl)cc1)C[C@@H](C)c1nnc(C)n1-2` [Compound 65, (R)-6-(4-chlorophenyl)-1,4-dimethyl-8-(5-methyl-1H-1,2,4-triazol-1-yl)-5,6-dihydro-4H-benzo[b][1,2,4]triazolo[4,3-d][1,4]diazepine], for which the IC50 at BRD4 (BD1) (setting [3]) lay within 100 to 1000 nM; in test [1] it was 1000 to 10000 nM; in test [2], 100 to 1000 nM.
As for `Cc1nnc2n1-c1ccc(C(=O)NCCO)cc1N(c1ccc(Cl)cc1)C[C@H]2C` [Compound 47, 4-R-4H-[1,2,4]triazolo[4,3-a][1,5]benzodiazepine,5,6-dihydro-1,4-dimethyl-8-(2-hydroxyethylcarbamoyl)-6-(4-chloro-phenyl)], the IC50 (on BRD4 (BD1) (setting [3]); in test [1]; in test [2]) was 100 to 1000 nM in each case.
On to `Cc1nnc2n1-c1ccccc1N(c1ccc(Cl)cc1)C(C)(C)C2` [Compound 22, 6-(4-chlorophenyl)-1,5,5-trimethyl-5,6-dihydro-4H-benzo[b][1,2,4]triazolo[4,3-d][1,4]diazepine], for which the IC50 was greater than 10000 nM on BRD4 (BD1) (setting [3]), 100 to 1000 nM in test [1] and 1000 to 10000 nM in test [2].
On the same counts, the results for `Cc1noc(-c2ccc3c(c2)N(c2ccc(Cl)cc2)C[C@@H](C)c2nnc(C)n2-3)n1` [Compound 51, 4-R-4H-[1,2,4]triazolo[4,3-a][1,5]benzodiazepine,5,6-dihydro-1,4-dimethyl-8-(3-methyl-1,2,4-oxadiazol-5-yl)-6-(4-chloro-phenyl)] are 100 to 1000 nM, less than 100 nM and less than 100 nM.
For the compound `Cc1ccc(-c2ccc3c(c2)N(c2ccc(Cl)cc2)C[C@H](C)c2nnc(C)n2-3)cn1` [Compound 28, (S)-4H-[1,2,4]triazolo[4,3-a][1,5]benzodiazepine, 5,6-dihydro-1,4-dimethyl-8-(6-methylpyridin-3-yl)-6-(4-chloro-phenyl)], the IC50 (on BRD4 (BD1) (setting [3]); in test [1]; in test [2]) was 1000 to 10000 nM throughout.
Take `Cc1nnc2n1-c1ccc(Br)cc1N(c1ccc(S(C)(=O)=O)cc1)C[C@H]2C` [Compound 77, (R)-8-bromo-1,4-dimethyl-6-(4-(methylsulfonyl)phenyl)-5,6-dihydro-4H-benzo[b][1,2,4]triazolo[4,3-d][1,4]diazepine]: the IC50 on BRD4 (BD1) (setting [3]) is 1000 to 10000 nM; in test [1], 1000 to 10000 nM; in test [2] it was greater than 1000 nM.
Turning to `Cc1nnc2n1-c1ccccc1N(c1ccc(Cl)cc1)CC2` [Compound 2, 6-(4-chlorophenyl)-1-methyl-5,6-dihydro-4H-benzo[b][1,2,4]triazolo[4,3-d][1,4]diazepine], the values for the IC50 (on BRD4 (BD1); in test [1]; in test [2]) were 100 to 1000 nM, 1000 to 10000 nM and 1000 to 10000 nM, respectively.
On to `Cc1c(-c2ccc3c(c2)N(c2ccc(Cl)cc2)C[C@@H](C)c2nnc(C)n2-3)cnn1C` [Compound 59, (R)-6-(4-chlorophenyl)-8-(1,5-dimethyl-1H-pyrazol-4-yl)-1,4-dimethyl-5,6-dihydro-4H-benzo[b][1,2,4]triazolo[4,3-d][1,4]diazepine], for which the IC50 (on BRD4 (BD1) (setting [3]); in test [1]; in test [2]) was less than 100 nM in each case.
As for `Cc1nnc2n1-c1ccc(-c3cnn(C)c3)cc1N(c1ccc(C#N)cn1)C[C@H]2C` [Compound 52, (R)-4H-[1,2,4]triazolo[4,3-a][1,5]benzodiazepine,5,6-dihydro-1,4-dimethyl-8-(1-methyl-1H-pyrazol-4-yl)-6-(5-cyanopyridin-2-yl)], the results for the IC50 (at BRD4 (BD1) (setting [3]); in test [1]; in test [2]) were less than 100 nM, 100 to 1000 nM and less than 100 nM, respectively.
As for `Cc1nnc2n1-c1ccc(-c3ccc(N)nc3)cc1N(c1ccc(C#N)cc1)CC2` [Compound 16, 4H-[1,2,4]triazolo[4,3-a][1,5]benzodiazepine, 5,6-dihydro-1-methyl-8-(6-aminopyridin-3-yl)-6-(4-cyano-phenyl)], the IC50 (on BRD4 (BD1) (setting [3]); in test [1]; in test [2]) was 100 to 1000 nM in each case.
Regarding `Cc1nnc2n1-c1ccc(Br)cc1N(c1ccc(Cl)cc1)C[C@H]2C` [Compound 38, (R)-4H-[1,2,4]triazolo[4,3-a][1,5]benzodiazepine,5,6-dihydro-1,4-dimethyl-8-bromo-6-(4-chloro-phenyl)], the IC50 (on BRD4 (BD1) (setting [3]); in test [1]; in test [2]) was 100 to 1000 nM each time.
`Cc1nnc2n1-c1ccc(-c3cnc(N)cn3)cc1N(c1ccc(Cl)cc1)C[C@H]2C` [Compound 55, 4-R-4H-[1,2,4]triazolo[4,3-a][1,5]benzodiazepine,5,6-dihydro-1,4-dimethyl-8-(5-aminopyrazin-2-yl)-6-(4-chloro-phenyl)]: the IC50 (at BRD4 (BD1) (setting [3]); in test [1]; in test [2]) was less than 100 nM in each case.
Turning to `Cc1nnc2n1-c1ccc(-c3ccc(=O)[nH]c3)cc1N(c1ccc(C#N)cc1)C[C@H]2C` [Compound 68, (R)-4-(1,4-dimethyl-8-(6-oxo-1,6-dihydropyridin-3-yl)-4H-benzo[b][1,2,4]triazolo[4,3-d][1,4]diazepin-6(5H)-yl)benzonitrile], the IC50 on BRD4 (BD1) (setting [3]) was less than 100 nM; in test [1], 1000 to 10000 nM; in test [2], 1000 to 10000 nM.
As for `Cc1nnc2n1-c1ccc(-c3ccc(=O)n(C)c3)cc1N(c1ccc(Cl)cc1)C[C@H]2C` [Compound 62, (R)-5-(6-(4-chlorophenyl)-1,4-dimethyl-5,6-dihydro-4H-benzo[b][1,2,4]triazolo[4,3-d][1,4]diazepin-8-yl)-1-methylpyridin-2(1H)-one], the IC50 (at BRD4 (BD1) (setting [3]); in test [1]; in test [2]) was less than 100 nM each time.
For the compound `Cc1nnc2n1-c1ccc(-c3cnn(C)n3)cc1N(c1ccc(C#N)cc1)C[C@H]2C` [Compound 75, (S)-4H-[1,2,4]Triazolo[4,3-a][1,5]benzodiazepine, 5,6-dihydro-1,4-dimethyl-8-(2-methyl-2H-1,2,3-triazole-4-yl)-6-(4-cyano-phenyl)], the IC50 (on BRD4 (BD1) (setting [3]); in test [1]; in test [2]) was less than 100 nM in each case.
For `Cc1nnc2n1-c1ccc(-c3ccc(N)nc3)cc1N(c1ccc(N)nc1)C[C@H]2C` [Compound 71, (R)-5,5′-(1,4-dimethyl-4H-benzo[b][1,2,4]triazolo[4,3-d][1,4]diazepine-6,8(5H)-diyl)dipyridin-2-amine], the IC50 on BRD4 (BD1) (setting [3]) is less than 100 nM; in test [1] it was 1000 to 10000 nM; in test [2], 1000 to 10000 nM.
For `Cc1nnc2n1-c1ccc(-c3cnn(C)c3)cc1N(c1ccc(Cl)cc1)C[C@H]2C` [Compound 43, (R)-(4H-[1,2,4]triazolo[4,3-a][1,5]benzodiazepine,5,6-dihydro-1,4-dimethyl-8-(1-methyl-1H-pyrazol-4-yl)-6-(4-chloro-phenyl))], the IC50 (on BRD4 (BD1) (setting [3]); in test [1]; in test [2]) was less than 100 nM in each case.
In the case of `Cc1nnc2n1-c1ccc(-n3cncn3)cc1N(c1ccc(Cl)cc1)C[C@H]2C` [Compound 54, (R)-6-(4-chlorophenyl)-1,4-dimethyl-8-(1H-1,2,4-triazol-1-yl)-5,6-dihydro-4H-benzo[b][1,2,4]triazolo[4,3-d][1,4]diazepine], the IC50 (on BRD4 (BD1) (setting [3]); in test [1]; in test [2]) was less than 100 nM throughout.
For `Cc1nnc2n1-c1ccc(-c3cn(C)nn3)cc1N(c1ccc(Cl)cc1)C[C@H]2C` [Compound 64, 4H-[1,2,4]Triazolo[4,3-a][1,5]benzodiazepine, 5,6-dihydro-1,4-dimethyl-8-(1-methyl-2H-1,2,3-triazole-4-yl)-6-(4-chloro-phenyl)], the IC50 (at BRD4 (BD1) (setting [3]); in test [1]; in test [2]) was less than 100 nM throughout.
Regarding `Cc1nnc(-c2ccc3c(c2)N(c2ccc(Cl)cc2)C[C@@H](C)c2nnc(C)n2-3)o1` [Compound 49, 4-R-4H-[1,2,4]triazolo[4,3-a][1,5]benzodiazepine,5,6-dihydro-1,4-dimethyl-8-(5-methyl-1,3,4-oxadiazol-2-yl)-6-(4-chloro-phenyl)], the IC50 (at BRD4 (BD1) (setting [3]); in test [1]; in test [2]) was less than 100 nM in each case.
On to `Cc1nnc2n1-c1ccc(-c3cnn(C)n3)cc1N(c1ccc(S(C)(=O)=O)cc1)C[C@@H]2C` [Compound 72, (R)-4H-[1,2,4]Triazolo[4,3-a][1,5]benzodiazepine, 5,6-dihydro-1,4-dimethyl-8-(2-methyl-2H-1,2,3-triazole-4-yl)-6-(4-methylsulfonyl-phenyl)], for which the values for the IC50 (at BRD4 (BD1) (setting [3]); in test [1]; in test [2]) were 100 to 1000 nM, 1000 to 10000 nM and greater than 1000 nM, respectively.
